{
  "source": "paper PMC3488872",
  "about": "(Chemistry & biology, 2012)",
  "system": "HeLa cells transfected with GR-GFP",
  "assay": "GR-GFP translocation assay for cytosolic access",
  "data": [
    {"smiles": "C[C@@H]1C[C@H]2[C@@H]3CCC4=CC(=O)C=C[C@]4(C)[C@@]3(F)[C@@H](O)C[C@]2(C)[C@@]1(O)C(=O)CO", "note": "[Dex, dexamethasone]", "values": [
      {"measurement": "effect of bafilomycin on TR", "setting": "200 nM bafilomycin 1 h pretreatment, then 1 μM", "value": "did not alter"},
      {"measurement": "effect of EIPA on TR", "setting": "50 μM EIPA 30 min pretreatment, then 1 μM 30 min 37°C", "value": "Neither EIPA nor dynasore blocked the increase"},
      {"measurement": "effect of dynasore on TR", "setting": "80 μM dynasore 30 min pretreatment, then 1 μM 30 min 37°C", "value": "Neither EIPA nor dynasore blocked the increase"},
      {"measurement": "reduction of the increase in TR by MβCD", "setting": "5 mM MβCD, 1 μM 30 min", "value": 53, "unit": "%"}
    ]}
  ]
}
